Assay [1] relates to corn (ZEAMD). Description: Test J preemergence mixtures of Compound 2 with crop safeners. It is filed as in vivo, Zea mays cv. ‘Pioneer 33G26’. Set-up: key to ZEAMD Obsd. (observed effect): observed % herbicidal effect. To be noted: Test J, alone. From the text: (§1) Seeds of test plants consisting of winter wheat (TRZAW, Triticum aestivum) and corn (ZEAMD, Zea mays cv. ‘Pioneer 33G26’) were planted into a blend of loam soil and sand and treated preemergence with a directed soil spray using test chemicals formulated in a non-phytotoxic solvent mixture that included a surfactant. […] Balanced fertilizer was applied through the watering system. Treatments consisted of Compound 2 and the above mentioned safeners alone and in combination using a spray volume of 457 L/ha. Each treatment was replicated four times. […] A dash (-) response means no test result. Colby's Equation was used to determine the herbicidal effects expected from the mixtures. Colby's Equation (Colby, S. […] wherein • Pa+b is the percentage effect of the mixture expected from additive contribution of the individual components, • Pa is the observed percentage effect of the first active ingredient at the same use rate as in the mixture, and Pb is the observed percentage effect of the second active ingredient at the same use rate as in the mixture.

The subject of assay [2] is winter wheat (TRZAW). Described as above. The assay is classed as in vivo, Triticum aestivum. Set-up: key to TRZAW Obsd. (observed effect): observed % herbicidal effect. To be noted: Test J, alone.
Source text: as §1

Another assay concerns giant foxtail. Description: Test A pre-/postemergence greenhouse test. The assay is classed as in vivo, Setaria faberi. To be noted: for Foxtail, Giant plant response rating: 0 to 100 scale. The procedure, abridged: (§2)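 Seeds sown in a loam soil–sand blend got a preemergence directed soil spray of compound in a non-phytotoxic solvent mixture containing surfactant. Postemergence sprays of the same formulation went at the same time onto plants 2–10 cm tall at the one- to two-leaf stage. Injury was scored visually against untreated controls after about ten days in the greenhouse.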

Another assay relates to velvetleaf. Description: Test A pre-/postemergence greenhouse test. The assay is classed as in vivo, Abutilon theophrasti. To be noted: for Velvetleaf plant response rating: 0 to 100 scale. The procedure, abridged:
as §2

The subject of a further assay is wheat. Put plainly: Test A pre-/postemergence greenhouse test. As to conditions: for Wheat plant response rating: 0 to 100 scale. It is filed as in vivo, Triticum aestivum. Put shortly: as §2
A further assay concerns duck salad. Put plainly: Test C flooded paddy test. As to conditions: Flood. The assay is classed as in vivo, Heteranthera limosa. Put shortly:
(§3)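 Greenhouse pots flooded to 3 cm above soil at time of treatment received compound via the water, which stayed at that level.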

In assay [3] the test system is barnyardgrass. Description: Test C flooded paddy test. The assay is classed as in vivo, Echinochloa crus-galli. To be noted: Flood. Put shortly:
as §3

A further assay concerns crabgrass. Put plainly: Test A pre-/postemergence greenhouse test. To be noted: for Crabgrass, Large plant response rating: 0 to 100 scale. It is filed as in vivo, Digitaria sanguinalis. The procedure, abridged: as §2
For another assay, the system named is rice. Description: Test C flooded paddy test. To be noted: Flood. It is filed as in vivo, Oryza sativa. The procedure, abridged: as §3
For the next assay, the system named is umbrella sedge. Put plainly: Test C flooded paddy test. It is filed as in vivo, Cyperus difformis. To be noted: Flood. Put shortly: as §3
The test system of the next assay is redroot pigweed. Put plainly: Test A pre-/postemergence greenhouse test. It is filed as in vivo, Amaranthus retroflexus. As to conditions: for Pigweed plant response rating: 0 to 100 scale. The procedure, abridged: as §2
The test system of another assay is corn. Description: Test A pre-/postemergence greenhouse test. The assay is classed as in vivo, Zea mays. To be noted: for Corn plant response rating: 0 to 100 scale. The procedure, abridged:
as §2

Assay [4] concerns barnyardgrass. Description: Test A pre-/postemergence greenhouse test. The assay is classed as in vivo, Echinochloa crus-galli. As to conditions: for Barnyardgrass plant response rating: 0 to 100 scale. Put shortly: as §2
Another assay relates to morningglory. Put plainly: Test A pre-/postemergence greenhouse test. To be noted: for Morningglory plant response rating: 500 g ai/ha, 0 to 100 scale. The assay is classed as in vivo, Ipomoea spp. Put shortly: as §2
Assay [5] has as its system corn (ZEAMD). Description: Test H preemergence mixtures of compound 2 with crop safeners. The assay is classed as in vivo, Zea mays cv. ‘Pioneer 33G26’. Set-up: key to ZEAMD Obsd. (observed effect): observed % effect, visually evaluated vs controls. As to conditions: Test H, alone. From the text: (§4) Seeds of test plants consisting of winter wheat (TRZAW, Triticum aestivum), corn (ZEAMD, Zea mays cv. ‘Pioneer 33G26’), giant foxtail (SETFA, Setaria faberi), and Italian ryegrass (LOLMU, Lolium multiflorum) were planted into a blend of loam soil and sand and treated preemergence with a directed soil spray using test chemicals formulated in a non-phytotoxic solvent mixture that included a surfactant. Seeds of small-seeded species were planted about 1 cm deep; larger seeds were planted about 2.5 cm deep. […] Balanced fertilizer was applied through the watering system. Treatments consisted of Compound 2 and the above mentioned safeners alone and in combination using a spray volume of 457 L/ha. Each treatment was replicated four times. Treated plants and controls were maintained in a greenhouse for 14 to 21 days, after which time all species were compared to controls and visually evaluated. […] A dash (-) response means no test result. Colby's Equation was used to determine the herbicidal effects expected from the mixtures. Colby's Equation (Colby, S. […] wherein • Pa+b is the percentage effect of the mixture expected from additive contribution of the individual components, • Pa is the observed percentage effect of the first active ingredient at the same use rate as in the mixture, and • Pb is the observed percentage effect of the second active ingredient at the same use rate as in the mixture.

Another assay relates to Italian ryegrass (LOLMU). The description is as above. As to conditions: Test H, alone. Set-up: key to LOLMU Obsd. (observed effect): observed % effect, visually evaluated vs controls. The assay is classed as in vivo, Lolium multiflorum.
Source text: as §4

Another assay relates to giant foxtail (SETFA). The assay is described as above. The assay is classed as in vivo, Setaria faberi. Set-up: key to SETFA Obsd. (observed effect): observed % effect, visually evaluated vs controls. To be noted: Test H, alone.
Source text: as §4

In assay [6] the test system is winter wheat (TRZAW). The description is as above. The assay is classed as in vivo, Triticum aestivum. Set-up: key to TRZAW Obsd. (observed effect): observed % effect, visually evaluated vs controls. As to conditions: Test H, alone.
Source text: as §4

[7] abbreviates: Postemergence, 125 g ai/ha, 0 to 100 scale where 0 is no effect and 100 is complete control.
Setting [8] is: Postemergence, 500 g ai/ha, 0 is no effect, 100 is complete control.
[9] abbreviates: Preemergence, 125 g ai/ha, 0 no effect, 100 complete control.
[10] abbreviates: Preemergence, 500 g ai/ha, 0 no effect, 100 complete control.
Setting [11] is: 31 g ai/ha, scale 0 to 100 (0 no effect, 100 complete control).
The mark [12] stands for this setting: 62 g ai/ha, scale 0 to 100 (0 no effect, 100 complete control).
The mark [13] stands for this setting: 125 g ai/ha, scale 0 to 100, 0 no effect, 100 complete control, 13 to 15 days.
The mark [14] stands for this setting: 250 g ai/ha, scale 0 to 100, 0 no effect, 100 complete control, 13 to 15 days.

SMILES strings stand for the structures.

Consider `CC(C)(C)c1ccc(C(=O)O)cc1` [4-t-butyl benzoic acid], for which the “ZEAMD Obsd. (observed effect)” value with corn (ZEAMD) [1] (8 g a.i./ha), with corn (ZEAMD) [1] (31 g a.i./ha), in the assay on corn (ZEAMD) [1] (125 g a.i./ha) and in the assay on corn (ZEAMD) [1] (500 g a.i./ha) was 0 throughout. Besides, the “TRZAW Obsd. (observed effect)” value with winter wheat (TRZAW) [2] (8 g a.i./ha), in the assay with winter wheat (TRZAW) [2] (31 g a.i./ha), in the assay with winter wheat (TRZAW) [2] (125 g a.i./ha) and in the assay with winter wheat (TRZAW) [2] (500 g a.i./ha) was 0 each time.
For the molecule `Cc1ccc[n+]([O-])c1S(=O)(=O)Cc1c(C(F)(F)F)nn(C)c1OC(F)F` [Compound 113], the “Plant response rating, Foxtail, Giant” value in the assay with giant foxtail (setting [7]) is reported as 60. For the same molecule, the “Foxtail, Giant plant response rating” value worked out at 80 in the assay with giant foxtail (setting [8]), 80 in the assay on giant foxtail (setting [9]) and 90 with giant foxtail (setting [10]). Also, the “Plant response rating, Velvetleaf” value with velvetleaf (setting [7]) amounted to 40. Also, the “Velvetleaf plant response rating” value turned out to be 50 in the assay with velvetleaf (setting [8]), 0 in the assay on velvetleaf (setting [9]) and 40 in the assay with velvetleaf (setting [10]). Besides, the “Plant response rating, Wheat” value with wheat (setting [7]) is reported as 40. Also, the figures for the “Wheat plant response rating” value with wheat (setting [8]), in the assay on wheat (setting [9]) and with wheat (setting [10]) were 60, 0 and 60, respectively. In addition, the “Plant response rating, Ducksalad” value in the assay on duck salad (setting [11]), in the assay with duck salad (setting [12]), in the assay with duck salad (setting [13]) and in the assay with duck salad (setting [14]) was 0 each time. The “Plant response rating, Barnyardgrass” value stood at 0 with barnyardgrass [3] (setting [11]); 0 in the assay on barnyardgrass [3] (setting [12]); 0 in the assay on barnyardgrass [3] (setting [13]); 0 in the assay on barnyardgrass [3] (setting [14]); 70 in the assay with barnyardgrass [4] (setting [7]). The “Plant response rating, Crabgrass, Large” value in the assay with crabgrass (setting [7]) was determined as 60. Also, the “Crabgrass, Large plant response rating” value with crabgrass (setting [8]) is reported as 80; with crabgrass (setting [9]), 80; in the assay with crabgrass (setting [10]) it was 90. The “Plant response rating, Rice” value in the assay on rice (setting [11]), with rice (setting [12]), with rice (setting [13]) and in the assay on rice (setting [14]) was 0 throughout. Further, the “Plant response rating, Sedge, Umbrella” value in the assay on umbrella sedge (setting [11]), in the assay with umbrella sedge (setting [12]), in the assay on umbrella sedge (setting [13]) and with umbrella sedge (setting [14]) was 0 in each case. Moreover, the “Plant response rating, Pigweed” value in the assay on redroot pigweed (setting [7]) is listed as 10. In addition, the “Pigweed plant response rating” value with redroot pigweed (setting [8]) came to 50; in the assay with redroot pigweed (setting [9]), 10; in the assay on redroot pigweed (setting [10]), 100. In the assay on corn (setting [7]), the “Plant response rating, Corn” value stood at 0. Further, the “Corn plant response rating” value is 60 in the assay on corn (setting [8]), 0 with corn (setting [9]) and 80 in the assay with corn (setting [10]). Moreover, the “Barnyardgrass plant response rating” value with barnyardgrass [4] (setting [8]) is 80; in the assay with barnyardgrass [4] (setting [9]) it was 70; in the assay on barnyardgrass [4] (setting [10]) it was 100. Also, in the assay on morningglory (setting [7]), the “Plant response rating, Morningglory” value came out at 30. Besides, the “Morningglory plant response rating” value in the assay on morningglory (Postemergence, 0 is no effect, 100 is complete control) is 60; with morningglory (Preemergence, 0 no effect, 100 complete control) it was 80.
As to `CCOC(=O)C1=NN(c2ccc(Cl)cc2Cl)C(C)(C(=O)OCC)C1` (stereo not shown) [mefenpyr-diethyl], the “ZEAMD Obsd. (observed effect)” value with corn (ZEAMD) [5] (8 g a.i./ha), in the assay on corn (ZEAMD) [5] (16 g a.i./ha) and in the assay with corn (ZEAMD) [5] (31 g a.i./ha) was 0 each time. Further, the “LOLMU Obsd. (observed effect)” value with Italian ryegrass (LOLMU) (8 g a.i./ha) came to 3; in the assay with Italian ryegrass (LOLMU) (16 g a.i./ha) it was 0; in the assay with Italian ryegrass (LOLMU) (31 g a.i./ha) it was 0. Also, the entries for the “SETFA Obsd. (observed effect)” value with giant foxtail (SETFA) (8 g a.i./ha), in the assay with giant foxtail (SETFA) (16 g a.i./ha) and in the assay with giant foxtail (SETFA) (31 g a.i./ha) were 0, 0 and 1, respectively. In addition, the “TRZAW Obsd. (observed effect)” value in the assay with winter wheat (TRZAW) [6] (8 g a.i./ha), with winter wheat (TRZAW) [6] (16 g a.i./ha) and in the assay on winter wheat (TRZAW) [6] (31 g a.i./ha) was 0 throughout.
Take `O=C1OC(=O)c2cccc3cccc1c23` [naphthalic anhydride, 1,8-naphthalic anhydride]: the “ZEAMD Obsd. (observed effect)” value in the assay on corn (ZEAMD) [5] (8 g a.i./ha), with corn (ZEAMD) [5] (16 g a.i./ha) and in the assay on corn (ZEAMD) [5] (31 g a.i./ha) was 0 each time. For the same molecule, the “LOLMU Obsd. (observed effect)” value is recorded as 13 with Italian ryegrass (LOLMU) (8 g a.i./ha), 0 in the assay with Italian ryegrass (LOLMU) (16 g a.i./ha) and 0 in the assay with Italian ryegrass (LOLMU) (31 g a.i./ha). The “SETFA Obsd. (observed effect)” value with giant foxtail (SETFA) (8 g a.i./ha), in the assay on giant foxtail (SETFA) (16 g a.i./ha) and in the assay on giant foxtail (SETFA) (31 g a.i./ha) was 0 in each case. The “TRZAW Obsd. (observed effect)” value in the assay with winter wheat (TRZAW) [6] (8 g a.i./ha) is 3; in the assay on winter wheat (TRZAW) [6] (16 g a.i./ha), 0; with winter wheat (TRZAW) [6] (31 g a.i./ha), 0.
